From patent US12391698B2, “Substituted piperidines and piperazines and methods for the treatment of CNS disorders” (SUVEN LIFE SCIENCES LIMITED, priority 2022, dated 2025)
Counter-ions that a name gives are not always drawn. Like-named read-outs stand apart in the source and are kept apart here.

Legend:
[1] = target: T1, cloned human 5-HT1A receptor (Homo sapiens, UniProt P08908); experiment: Determination of Ki at 5-HT1A receptor (radioligand binding, [3H]-8-Hydroxy DPAT); conditions: HEK293-EBNA recombinant cells; [3H]-8-Hydroxy DPAT 0.8 nM; read-out: Ki h5-HT1A
T1 construct: expressed in transfected cells; host or cells: HEK293-EBNA
T1 sequence (P08908 1-422): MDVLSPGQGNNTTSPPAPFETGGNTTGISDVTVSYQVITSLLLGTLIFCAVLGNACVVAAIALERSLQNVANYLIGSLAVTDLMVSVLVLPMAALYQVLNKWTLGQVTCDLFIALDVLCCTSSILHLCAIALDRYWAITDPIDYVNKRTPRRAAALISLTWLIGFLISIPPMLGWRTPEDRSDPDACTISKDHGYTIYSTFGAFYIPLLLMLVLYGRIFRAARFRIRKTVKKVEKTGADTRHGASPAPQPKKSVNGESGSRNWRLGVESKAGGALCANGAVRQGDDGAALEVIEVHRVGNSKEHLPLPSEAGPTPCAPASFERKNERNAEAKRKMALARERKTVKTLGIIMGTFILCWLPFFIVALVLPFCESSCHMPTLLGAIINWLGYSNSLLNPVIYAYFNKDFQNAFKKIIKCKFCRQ
Procedure: (§1) Compounds were tested according to the following procedure.
(§2) • Receptor source: Recombinant mammalian cells (HEK293-EBNA) • Radioligand: [^3H]-8-Hydroxy DPAT (200 Ci/mmol) • Final ligand concentration: 0.8 nM • Non-specific determinant: 0.1 mM U92016A • Reference compound: U92016A • Positive control: U92016A Incubation Conditions:
(§3) Reactions were carried out in buffer with pH 7.4 containing 50 mM Tris-HCl, 0.5 mM EDTA, 10 mM MgSO4, 0.1% Ascorbic acid for 2 h at r.t. The reaction was terminated by rapid vacuum filtration onto the glass fiber filters. Radioactivity trapped onto the filters was determined and compared to the control values in order to ascertain any interactions of the test compound(s) with cloned human 5-HT1A receptor binding site.

[2] = target: T2, cloned human 5-HT2A receptor (Homo sapiens, UniProt P28223); experiment: Determination of Ki at 5-HT2A receptor (radioligand binding, [3H]-Ketanserine); conditions: CHO-K1 recombinant cells; [3H]-Ketanserine 1.25 nM; read-out: Ki h5-HT2A
T2 construct: expressed in transfected cells; host or cells: CHO-K1
T2 sequence (P28223 whole entry): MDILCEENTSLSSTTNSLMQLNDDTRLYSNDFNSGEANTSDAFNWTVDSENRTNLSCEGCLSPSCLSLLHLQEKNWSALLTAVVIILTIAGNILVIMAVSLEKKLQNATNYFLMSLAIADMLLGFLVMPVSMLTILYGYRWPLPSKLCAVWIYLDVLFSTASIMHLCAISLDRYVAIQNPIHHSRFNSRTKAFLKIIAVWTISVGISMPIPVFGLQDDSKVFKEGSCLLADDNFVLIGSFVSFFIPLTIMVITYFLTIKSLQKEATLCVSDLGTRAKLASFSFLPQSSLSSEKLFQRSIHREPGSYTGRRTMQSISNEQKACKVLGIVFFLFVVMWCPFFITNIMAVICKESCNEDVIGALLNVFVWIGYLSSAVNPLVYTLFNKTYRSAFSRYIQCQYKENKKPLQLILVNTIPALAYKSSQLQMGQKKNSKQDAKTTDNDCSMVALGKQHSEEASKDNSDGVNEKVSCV
Procedure: as §1
as §2, with “(CHO-K1)” for “(HEK293-EBNA)”, “[^3H]-Ketanserine (41.9” for “[^3H]-8-Hydroxy DPAT (200”, “1.25” for “0.8”, “1-Napthyl piperazine (1-NP)” for “U92016A”
as §3, with “4” for “0.5”, “CaCl2),” for “EDTA, 10 mM MgSO4,”, “1” for “2”, “5-HT2A” for “5-HT1A”

[3] = target: cloned human SERT receptor (Homo sapiens, UniProt P31645); experiment: Determination of Ki at SERT receptor (SPA binding, [3H]-Citalopram); conditions: HEK293 recombinant cells, [3H]-Citalopram 2 nM, read-out: Ki hSERT
Chain of cloned human SERT receptor (P31645 whole entry): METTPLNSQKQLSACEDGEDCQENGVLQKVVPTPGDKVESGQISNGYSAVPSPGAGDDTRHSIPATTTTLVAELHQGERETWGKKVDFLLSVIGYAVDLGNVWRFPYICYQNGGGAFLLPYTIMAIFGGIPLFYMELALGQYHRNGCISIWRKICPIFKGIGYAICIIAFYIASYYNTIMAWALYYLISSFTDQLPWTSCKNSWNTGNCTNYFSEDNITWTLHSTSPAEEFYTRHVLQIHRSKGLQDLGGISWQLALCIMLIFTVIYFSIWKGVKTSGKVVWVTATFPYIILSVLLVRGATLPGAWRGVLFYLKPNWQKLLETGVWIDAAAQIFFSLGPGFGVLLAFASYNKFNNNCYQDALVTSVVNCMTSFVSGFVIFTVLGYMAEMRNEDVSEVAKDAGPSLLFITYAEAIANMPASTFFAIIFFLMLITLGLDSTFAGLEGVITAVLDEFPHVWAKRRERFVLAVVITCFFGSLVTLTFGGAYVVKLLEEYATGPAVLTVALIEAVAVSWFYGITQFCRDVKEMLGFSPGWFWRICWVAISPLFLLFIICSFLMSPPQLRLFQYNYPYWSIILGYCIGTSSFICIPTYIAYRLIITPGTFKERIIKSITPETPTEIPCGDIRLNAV
Procedure: as §1
• Receptor source: Recombinant mammalian cells (HEK293) • Radioligand: [^3H]-Citalopram (80.8 Ci/mmol) • Final ligand concentration: 2 nM • Non-specific determinant: 0.1 mM Venlafaxine • Reference compound: Venlafaxine • Positive control: Venlafaxine Incubation Conditions:
Reactions were carried out in buffer with pH 7.4 containing 50 mM Tris-HCl, 150 mM NaCl, 5 mM KCl and scintillation proximity assay (SPA) beads (0.1 mg/well) for 3 h at r.t. Radioactivity proximal to SPA beads was determined by scintillation proximity assay and compared to the control values in order to ascertain any interactions of the test compound(s) with cloned human SERT receptor binding site.
Reference: Journal of Pharmacology and Experimental Therapeutics, 1987, 242 (1), 364-371.

[4] = target: T3, hD2S (cloned human dopamine D2S receptor) (Homo sapiens, UniProt P14416); experiment: Determination of Ki at D2S receptor (radioligand binding, [3H]-Raclopride); conditions: CHO-K1 recombinant cells; [3H]-Raclopride 4 nM; read-out: Ki hD2S
T3 construct: expressed in transfected cells; host or cells: CHO-K1
T3 sequence (P14416 1-414 isoform P14416-2): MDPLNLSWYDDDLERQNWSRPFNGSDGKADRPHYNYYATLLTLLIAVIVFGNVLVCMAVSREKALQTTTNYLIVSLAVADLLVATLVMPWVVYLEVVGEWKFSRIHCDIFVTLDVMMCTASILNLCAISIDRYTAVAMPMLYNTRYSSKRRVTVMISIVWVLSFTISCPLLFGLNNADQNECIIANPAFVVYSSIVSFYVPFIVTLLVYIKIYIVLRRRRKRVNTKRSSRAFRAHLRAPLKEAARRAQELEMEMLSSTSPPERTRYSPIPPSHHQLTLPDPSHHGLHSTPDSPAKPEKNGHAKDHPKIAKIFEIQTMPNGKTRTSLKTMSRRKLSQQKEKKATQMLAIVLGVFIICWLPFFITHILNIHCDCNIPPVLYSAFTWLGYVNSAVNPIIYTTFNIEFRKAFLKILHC
Procedure: as §1
• Receptor source: Recombinant mammalian cells (CHO-K1) • Radioligand: [^3H]-Raclopride (80.8 Ci/mmol) • Final ligand concentration: 4 nM • Non-specific determinant: 0.1 mM Haloperidol • Reference compound: Haloperidol • Positive control: Haloperidol Incubation Conditions:
as §3, with “120” for “0.5”, “NaCl, 5” for “EDTA, 10”, “KCl, 5 mM MgCl2, 1 mM EDTA” for “MgSO4, 0.1% Ascorbic acid”, “dopamine […]” for “5-HT1A”

| Structure (SMILES) | Ki [1] [nM] | Ki [2] [nM] | Ki [3] [µM] | Ki [4] [nM] | Ki ([3]; cells printed in μM) [µM] |
| --- | --- | --- | --- | --- | --- |
| O=C1C[C@@H]2CCCCN2C(=O)N1CCCCN1CCN(c2nsc3ccccc23)CC1 [Example 12, 2-[4-(4-Benzo[d]isothiazol-3-yl-piperazin-1-yl)-butyl]-hexahydro-pyrido[1,2-c]pyrimidine-1,3-dione] | 0.1 | 0.6 | 0.181 | 0.6 | – |
| O=C1C[C@@H]2CCCCN2C(=O)N1CCCCN1CCC(c2c[nH]c3ccc(F)cc23)CC1 [Example 15, 2-{4-[4-(5-Fluoro-1H-indol-3-yl)-piperidin-1-yl]-butyl}-hexahydro-pyrido[1,2-c]pyrimidine-1,3-dione] | 2.2 | 53.6 | 0.0269 | 2.9 | – |
| COC(=O)N1CCN2C(=O)N(CCCCN3CCN(c4nsc5ccccc45)CC3)C(=O)CC2C1 (stereo not shown) [Example 34, 7-[4-(4-Benzo[d]isothiazol-3-yl-piperazin-1-yl)-butyl]-6,8-dioxo-octahydro-pyrazino[1,2-c]pyrimidine-2-carboxylic acid methyl ester fumarate] | 1.3 | 0.5 | 0.152 | 2.4 | – |
| O=C(OCc1ccccc1)N1CCN2C(=O)N(CCCCN3CCC(c4noc5cc(F)ccc45)CC3)C(=O)CC2C1 (stereo not shown) [Example 22, 7-{4-[4-(6-Fluoro-benzo[d]isoxazol-3-yl)-piperidin-1-yl]-butyl}-6,8-dioxo-octahydro-pyrazino[1,2-c]pyrimidine-2-carboxylic acid benzyl ester fumarate] | 84.1 | 1.5 | 0.279 | 2.5 | – |
| COC(=O)N1CCN2C(=O)N(CCCCN3CCN(c4nsc5ccccc45)CC3)C(=O)C[C@@H]2C1 [Example 33, 7-[4-(4-Benzo[d]isothiazol-3-yl-piperazin-1-yl)-butyl]-6,8-dioxo-octahydro-pyrazino[1,2-c]pyrimidine-2-carboxylic acid methyl ester] | 0.3 | 0.8 | 0.0611 | 1.7 | – |
| O=C1C[C@H]2COCCN2C(=O)N1C[C@H]1CCCC[C@H]1CN1CCN(c2nsc3ccccc23)CC1 [Example 30, 7-[2-(4-Benzo[d]isothiazol-3-yl-piperazin-1-ylmethyl)-cyclohexylmethyl]-tetrahydro-pyrimido[6,1-c][1,4]oxazine-6,8-dione] | – | 8.5 | 9.35 | 0.6 | – |
| O=C(OCc1ccccc1)N1CCN2C(=O)N(CCCCN3CCN(c4nsc5ccccc45)CC3)C(=O)C[C@@H]2C1 [Example 20, 7-[4-(4-Benzo[d]isothiazol-3-yl-piperazin-1-yl)-butyl]-6,8-dioxo-octahydro-pyrazino[1,2-c]pyrimidine-2-carboxylic acid benzyl ester fumarate] | 1.3 | 1.1 | 0.148 | 2.7 | – |
| O=C1C[C@@H]2CCCN2C(=O)N1CCCN1CCN(c2nsc3ccccc23)CC1 [Example 23, 2-[3-(4-benzo[d]isothiazol-3-yl-piperazin-1-yl)-propyl]tetrahydro-pyrrolo[1,2-c]pyrimidine-1,3-dione] | 21.4 | 5.3 | 0.918 | 22.3 | – |
| CC(C)N1CCN2C(=O)N(CCCCN3CCN(c4nsc5ccccc45)CC3)C(=O)C[C@H]2C1 [Example 40, 7-[4-(4-Benzo[d]isothiazol-3-yl-piperazin-1-yl)-butyl]-2-isopropyl-hexahydro-pyrazino[1,2-c]pyrimidine-6,8-dione fumarate] | 0.5 | 1.6 | 1.25 | 5 | – |
| O=C1C[C@@H]2CCCN2C(=O)N1CCCN1CCC(c2c[nH]c3ccc(F)cc23)CC1 [Example 25, 2-{3-[4-(5-Fluoro-1H-indol-3-yl)-piperidin-1-yl]-propyl}-tetrahydro-pyrrolo[1,2-c]pyrimidine-1,3-dione] | 58.6 | 195 | 0.298 | 23.8 | – |
| COc1ccc2[nH]cc(C3CCN(CCCCN4C(=O)C[C@@H]5CCCCN5C4=O)CC3)c2c1 [Example 16, 2-{4-[4-(5-Methoxy-1H-indol-3-yl)-piperidin-1-yl]-butyl}-hexahydro-pyrido[1,2-c]pyrimidine-1,3-dione] | 0.6 | 1210 | 0.427 | 59.1 | – |
| O=C1C[C@@H]2CCCN2C(=O)N1CCCN1CCC(c2noc3ccccc23)CC1 [Example 44, 2-[3-(4-Benzo[d]isoxazol-3-yl-piperidin-1-yl)-propyl]-tetrahydro-pyrrolo[1,2-c]pyrimidine-1,3-dione, oxalate] | 531 | 59.9 | – | 119 | > 10 |
| COC(=O)N1CCN2C(=O)N(CCCCN3CCC(c4noc5cc(F)ccc45)CC3)C(=O)C[C@@H]2C1 [Example 35, 7-{4-[4-(6-Fluoro-benzo[d]isoxazol-3-yl)-piperidin-1-yl]-butyl}-6,8-dioxo-octahydro-pyrazino[1,2-c]pyrimidine-2-carboxylic acid methyl ester] | 45.7 | 4.8 | 0.975 | 4.7 | – |
| O=C1C[C@@H]2CCCN2C(=O)N1CCCCN1CCC(c2noc3ccccc23)CC1 [Example 42, 2-{4-[4-(Benzo[d]isoxazol-3-yl)-piperidin-1-yl]-butyl}-tetrahydro-pyrrolo[1,2-c]pyrimidine-1,3-dione, oxalate] | 8.7 | 11.6 | – | 37.3 | > 10 |
| O=C(OCc1ccccc1)N1CCN2C(=O)N(CCCCN3CCN(c4nsc5ccccc45)CC3)C(=O)C[C@@H]2C1 [Example 19, 7-[4-(4-Benzo[d]isothiazol-3-yl-piperazin-1-yl)-butyl]-6,8-dioxo-octahydro-pyrazino[1,2-c]pyrimidine-2-carboxylic acid benzyl ester] | 1.1 | 0.8 | 0.126 | 3.2 | – |
| CC(=O)N1CCN2C(=O)N(CCCCN3CCN(c4nsc5ccccc45)CC3)C(=O)C[C@@H]2C1 [Example 37, 2-Acetyl-7-[4-(4-benzo[d]isothiazol-3-yl-piperazin-1-yl)-butyl]-hexahydro-pyrazino[1,2-c]pyrimidine-6,8-dione] | 0.3 | 1.5 | 1.1 | 8.2 | – |
| O=C1C[C@@H]2CCCN2C(=O)N1CCCCN1CCC(c2c[nH]c3ccc(F)cc23)CC1 [Example 7, 2-{4-[4-(5-Fluoro-1H-indol-3-yl)-piperidin-1-yl]-butyl}-tetrahydro-pyrrolo[1,2-c]pyrimidine-1,3-dione oxalate] | 1.8 | 49.9 | 0.0385 | 4.5 | – |
| CC(=O)N1CCN2C(=O)N(CCCCN3CCN(c4nsc5ccccc45)CC3)C(=O)C[C@@H]2C1 [Example 38, 2-Acetyl-7-[4-(4-benzo[d]isothiazol-3-yl-piperazin-1-yl)-butyl]-hexahydro-pyrazino[1,2-c]pyrimidine-6,8-dione fumarate] | – | 2.2 | 0.953 | 4.5 | – |
